The supplement of paper PMC4862054

Columns and labels:
Details in all cases: incubation time: 72 h
BT-474 [1] = assay: drug sensitivity score (DSS), CellTiter-Blue viability (DSS (AUC-based score)); higher = stronger viability inhibition; extreme values may be limits of the assay
Experimental: (§1)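 DSRT with the CellTiter-Blue (resazurin reduction) viability readout, fluorescence 560/590 nm, 72 h incubation. Plates were normalised to DMSO and benzethonium chloride controls. DSS is computed from the area under the fitted dose-response curve (5 or 9 concentrations).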

MDA-MB-436 [2] = assay: as above
Experimental: as §1

DU-4475 [3] = assay: as above
Experimental: as §1

MDA-MB-453 [4] = assay: normalised viability (% of control), CellTiter-Blue; higher = more viable cells (about 100 = DMSO control)
Experimental: (§2)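 DSRT, CellTiter-Blue viability, 72 h incubation. Signal is normalised to DMSO and benzethonium chloride controls. Value is the normalised response at dose 7.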

HDQ-P1 [5] = assay: as above
Experimental: as §2

CAL-51 [6] = assay: as above
Experimental: as §2

DU-4475 [7] = assay: as above
Experimental: as §2

CAL-148 [8] = assay: as above
Experimental: as §2

CAL-85-1 [9] = assay: as above
Experimental: as §2

MDA-MB-453 [10] = assay: normalised response (% of control), CellTox Green; higher = less cell death (100 = DMSO, 0 = benzethonium chloride kill control)
Procedure, shortened: (§3)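 Breast cancer cell lines in 20 µl suspension were added to 384-well plates containing compound at 5 concentrations, spaced in 10-fold steps across a 10,000-fold range chosen for each compound, and incubated for 72 h. CellTox Green fluorescence was read at 485/520 nm, followed by CellTiter-Glo luminescence after 10 min at room temperature. Signals on each plate were normalised so that 0.1 % DMSO equals 100 and a positive kill control equals 0. Every value in the table is the normalised signal at one concentration of the series.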

MDA-MB-468 = assay: as above
Procedure, shortened: as §3

BT-474 [11] = assay: as above
Procedure, shortened: as §3

HDQ-P1 [12] = assay: as above
Procedure, shortened: as §3

CAL-51 [13] = assay: as above
Procedure, shortened: as §3

MDA-MB-436 [14] = assay: as above
Procedure, shortened: as §3

Hs578T = assay: as above
Procedure, shortened: as §3

DU-4475 [15] = assay: as above
Procedure, shortened: as §3

MFM-223 = assay: as above
Procedure, shortened: as §3

HCC1599 = assay: as above
Procedure, shortened: as §3

HCC1143 = assay: as above
Procedure, shortened: as §3

MCF-10A = assay: as above
Procedure, shortened: as §3

CAL-148 [16] = assay: as above
Procedure, shortened: as §3

CAL-85-1 [17] = assay: as above
Procedure, shortened: as §3

HCC1937 = assay: as above
Procedure, shortened: as §3

CAL-120 = assay: as above
Procedure, shortened: as §3

BT-549 = assay: as above
Procedure, shortened: as §3

MDA-MB-231 = assay: as above
Procedure, shortened: as §3

C=C(c1ccc(C(=O)O)cc1)c1cc2c(cc1C)C(C)(C)CCC2(C)C [Bexarotene]
drug sensitivity score (BT-474 [1]): 0
drug sensitivity score (MDA-MB-436 [2]): 0
drug sensitivity score (DU-4475 [3]): 0

CC1(C)NC(=O)N(c2ccc([N+](=O)[O-])c(C(F)(F)F)c2)C1=O [Nilutamide] (1000 nM)
normalised viability (MDA-MB-453 [4]): 108%
normalised viability (HDQ-P1 [5]): 123%
normalised viability (CAL-51 [6]): 99.7%
normalised viability (DU-4475 [7]): 102%
normalised viability (CAL-148 [8]): 108%
normalised viability (CAL-85-1 [9]): 94.2%
normalised response (MDA-MB-453 [10]): 94%
normalised response (MDA-MB-468): 115%
normalised response (BT-474 [11]): 102%
normalised response (HDQ-P1 [12]): 88.5%
normalised response (CAL-51 [13]): 103%
normalised response (MDA-MB-436 [14]): 103%
normalised response (Hs578T): 100%
normalised response (DU-4475 [15]): 103%
normalised response (MFM-223): 95.9%
normalised response (HCC1599): 107%
normalised response (HCC1143): 72.8%
normalised response (MCF-10A): 115%
normalised response (CAL-148 [16]): 92%
normalised response (CAL-85-1 [17]): 103%
normalised response (HCC1937): 98%
normalised response (CAL-120): 101%
normalised response (BT-549): 123%
normalised response (MDA-MB-231): 115%

O=P1(NCCCl)OCCCN1CCCl (configuration not stated) [Ifosfamide]
drug sensitivity score (BT-474 [1]): 0
drug sensitivity score (MDA-MB-436 [2]): 0
drug sensitivity score (DU-4475 [3]): 0

CNCc1ccc(-c2[nH]c3cc(F)cc4c3c2CCNC4=O)cc1 [Rucaparib]
drug sensitivity score (BT-474 [1]): 0
drug sensitivity score (MDA-MB-436 [2]): 0
drug sensitivity score (DU-4475 [3]): 0

Oc1nc(-c2ccc(C(F)(F)F)cc2)nc2c1CSCC2 [XAV-939] (1000 nM)
normalised viability (MDA-MB-453 [4]): 90.3%
normalised viability (HDQ-P1 [5]): 103%
normalised viability (CAL-51 [6]): 93.2%
normalised viability (DU-4475 [7]): 108%
normalised viability (CAL-148 [8]): 101%
normalised viability (CAL-85-1 [9]): 81.8%
normalised response (MDA-MB-453 [10]): 102%
normalised response (MDA-MB-468): 118%
normalised response (BT-474 [11]): 101%
normalised response (HDQ-P1 [12]): 77.1%
normalised response (CAL-51 [13]): 102%
normalised response (MDA-MB-436 [14]): 102%
normalised response (Hs578T): 88.9%
normalised response (DU-4475 [15]): 101%
normalised response (MFM-223): 99.9%
normalised response (HCC1599): 100%
normalised response (HCC1143): 96.1%
normalised response (MCF-10A): 67.7%
normalised response (CAL-148 [16]): 101%
normalised response (CAL-85-1 [17]): 103%
normalised response (HCC1937): 114%
normalised response (CAL-120): 102%
normalised response (BT-549): 106%
normalised response (MDA-MB-231): 102%

CN[C@@H]1C[C@H]2O[C@@](C)([C@@H]1OC)n1c3ccccc3c3c4c(c5c6ccccc6n2c5c31)C(=O)N[C@H]4O [UCN-01]
drug sensitivity score (BT-474 [1]): 12.2
drug sensitivity score (MDA-MB-436 [2]): 12.4
drug sensitivity score (DU-4475 [3]): 19.5

CCC1(c2ccc(N)cc2)CCC(=O)NC1=O (configuration not stated) [Aminoglutethimide] (1000 nM)
normalised viability (MDA-MB-453 [4]): 88.8%
normalised viability (HDQ-P1 [5]): 79.3%
normalised viability (CAL-51 [6]): 91%
normalised viability (DU-4475 [7]): 86.1%
normalised viability (CAL-148 [8]): 113%
normalised viability (CAL-85-1 [9]): 95.2%
normalised response (MDA-MB-453 [10]): 101%
normalised response (MDA-MB-468): 177%
normalised response (BT-474 [11]): 102%
normalised response (HDQ-P1 [12]): 104%
normalised response (CAL-51 [13]): 83.5%
normalised response (MDA-MB-436 [14]): 98.2%
normalised response (Hs578T): 71.8%
normalised response (DU-4475 [15]): 99.2%
normalised response (MFM-223): 97.6%
normalised response (HCC1599): 96.2%
normalised response (HCC1143): 106%
normalised response (MCF-10A): 109%
normalised response (CAL-148 [16]): 104%
normalised response (CAL-85-1 [17]): 105%
normalised response (HCC1937): 97.3%
normalised response (CAL-120): 99.8%
normalised response (BT-549): 117%
normalised response (MDA-MB-231): 76.7%

O=P1(NCCCl)OCCCN1CCCl (configuration not stated) [Ifosfamide] (1000 nM)
normalised viability (MDA-MB-453 [4]): 112%
normalised viability (HDQ-P1 [5]): 103%
normalised viability (CAL-51 [6]): 114%
normalised viability (DU-4475 [7]): 101%
normalised viability (CAL-148 [8]): 101%
normalised viability (CAL-85-1 [9]): 81.2%
normalised response (MDA-MB-453 [10]): 107%
normalised response (MDA-MB-468): 139%
normalised response (BT-474 [11]): 98.2%
normalised response (HDQ-P1 [12]): 67.6%
normalised response (CAL-51 [13]): 95.4%
normalised response (MDA-MB-436 [14]): 58.7%
normalised response (Hs578T): 89.2%
normalised response (DU-4475 [15]): 95.8%
normalised response (MFM-223): 94.9%
normalised response (HCC1599): 98.7%
normalised response (HCC1143): 107%
normalised response (MCF-10A): 90%
normalised response (CAL-148 [16]): 100%
normalised response (CAL-85-1 [17]): 100%
normalised response (HCC1937): 70.1%
normalised response (CAL-120): 99.5%
normalised response (BT-549): 107%
normalised response (MDA-MB-231): 96.2%

NCC(=O)CCC(=O)O [Aminolevulinic acid]
drug sensitivity score (BT-474 [1]): 0
drug sensitivity score (MDA-MB-436 [2]): 0
drug sensitivity score (DU-4475 [3]): 0

CO[C@H]1/C=C\C=C(/C)C(=O)NC2=CC(=O)C(NCCN(C)C)=C(C[C@@H](C)C[C@H](OC)[C@H](O)[C@@H](C)/C=C(\C)[C@@H]1OC(N)=O)C2=O [Alvespimycin]
drug sensitivity score (BT-474 [1]): 14.6
drug sensitivity score (MDA-MB-436 [2]): 16.1
drug sensitivity score (DU-4475 [3]): 21.9

NC(=O)Nc1cc(-c2cccc(F)c2)sc1C(=O)N[C@H]1CCCNC1 [AZD 7762]
drug sensitivity score (BT-474 [1]): 0
drug sensitivity score (MDA-MB-436 [2]): 5.44
drug sensitivity score (DU-4475 [3]): 2.46
